Data taken from patent US20130109682A1, “CYCLIC ETHER COMPOUNDS USEFUL AS KINASE INHIBITORS” (NOVARTIS AG, priority 2010, published 2013).
Read-outs that look alike come from different tables or passages of the source.

How the values were obtained:
[1] = target: GSK3β (Homo sapiens, UniProt P49841); assay: GSK3β ATP depletion assay; assay type: biochemical; details: read-out: GSK3b IC50
How it was run: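 Human GSK3β (5 nM) preincubated 15 min with 10 μM biotinylated phospho-CREB peptide in pH 7.5 Tris buffer (15 mM MgCl2, 1 mM DTT, 0.1% BSA, 2.5% DMSO). Reaction started with 2 μM ATP and run to about 50% ATP depletion. Remaining ATP measured by KinaseGlo luminescence.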

[2] = target: PIM2 (Homo sapiens, UniProt Q9P1W9); assay: Pim 2 AlphaScreen assay (high ATP); assay type: biochemical; details: read-out: Pim2 IC50
How it was run: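 This is a bead-based AlphaScreen run at high ATP (11-125× Km) with biotin-Bad peptide (100 nM in the substrate mix), in 50 mM Hepes pH 7.5, 5 mM MgCl2, 0.05% BSA, 0.01% Tween-20, 1 mM DTT and 2.5% DMSO final. After ~2 h the reaction was stopped with EDTA. Phospho-peptide was detected overnight with anti-phospho Ser/Thr antibody on Protein A and streptavidin beads, giving IC50.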

[3] = target: KDR kinase (Homo sapiens, UniProt P35968); assay: KDR kinase inhibition assay (LanthaScreen TR-FRET); assay type: biochemical
Experimental: KDR Kinase Inhibition Assay
LanthaScreen™ is the detection of Time-Resolved Fluorescence Resonance Energy Transfer (TR-FRET) using lanthanide chelates to measure interactions between various binding partners. The application of TR-FRET to assay kinase activity was first described by Mathis (1995). A TR-FRET assay was used to measure KDR kinase inhibitory activity. The assay panel was run on a Biomek FX liquid handling workstations. To the assay plates containing 50 nL compound or control solutions, 4.5 μL of buffer A (50 mM TRIS-HCl pH 7.4, 2 mM DTT, 0.02% Tween 20, 0.02 mM Na3VO4, H2O nanpure) including a generic concentration of ATP (2 μM f.c.) was added per well, followed by 4.5 μL of buffer B (4 uM ATP in Buffer A) including a generic concentration of polyEAY (50 nM f.c.), KDR kinase, and divalent cations. Final concentration of kinase and cations were: [KDR kinase]=0.38 nM, [Mg]=10 mM, [Ca]=1 mM. After 1 hour of incubation the kinase reactions were stopped by the addition of 4.5 μL of stop solution D (50 mM EDTA, 20 mM TRIS-HCl pH 7.4, 0.04% NP-40) immediately followed by 4.5 μL of buffer A (50 mM TRIS-HCl pH 7.4, 2 mM DTT, 0.02% Tween 20, 0.02 mM Na3VO4, H2O nanpure) including the Tb-labeled P-20 antibody to give a total detection volume of 18 μL. After an incubation time of 45 min in the dark, the plates were transferred into the Pherastar fluorescence reader for counting. The effect of compound on the enzymatic activity was obtained from the linear progress curves and determined from one reading (end point measurement).

[4] = system: KMS11 (human myeloma cell line); assay: Cell proliferation assay (CellTiter-Glo), KMS11; assay type: cell-based; details: Homo sapiens, KMS-11
How it was run: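 KMS11 cells in IMDM with 10% FBS and sodium pyruvate, seeded at 2000 cells/well on assay day. Compound added at 2× to equal volume of cells, incubated 3 days at 37° C. Viability read by CellTiter-Glo luminescence; EC50 derived.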

[5] = KMS11 cells, cell proliferation, read-out: KMS11-Luc EC50

GSK3β, sequence (P49841 whole entry, species assumed): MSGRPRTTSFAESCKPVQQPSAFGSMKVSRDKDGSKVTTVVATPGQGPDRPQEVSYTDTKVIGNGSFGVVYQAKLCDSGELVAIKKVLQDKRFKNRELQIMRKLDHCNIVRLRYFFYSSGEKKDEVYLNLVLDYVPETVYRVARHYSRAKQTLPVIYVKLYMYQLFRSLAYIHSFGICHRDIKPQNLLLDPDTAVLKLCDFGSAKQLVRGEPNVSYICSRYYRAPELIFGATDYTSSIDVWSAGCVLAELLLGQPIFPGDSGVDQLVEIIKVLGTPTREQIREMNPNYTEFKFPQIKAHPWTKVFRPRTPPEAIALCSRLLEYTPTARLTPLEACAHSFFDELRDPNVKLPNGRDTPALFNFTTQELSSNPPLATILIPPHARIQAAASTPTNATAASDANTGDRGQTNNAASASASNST
PIM2, sequence (Q9P1W9 whole entry): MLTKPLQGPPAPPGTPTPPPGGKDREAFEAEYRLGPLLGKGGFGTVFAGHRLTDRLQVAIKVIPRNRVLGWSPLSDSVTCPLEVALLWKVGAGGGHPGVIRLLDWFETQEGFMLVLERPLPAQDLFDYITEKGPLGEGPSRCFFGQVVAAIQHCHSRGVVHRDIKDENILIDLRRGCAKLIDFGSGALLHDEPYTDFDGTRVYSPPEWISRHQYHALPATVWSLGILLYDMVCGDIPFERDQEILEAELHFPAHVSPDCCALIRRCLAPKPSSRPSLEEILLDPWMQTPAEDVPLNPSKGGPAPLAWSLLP
KDR kinase, sequence (P35968 20-1356): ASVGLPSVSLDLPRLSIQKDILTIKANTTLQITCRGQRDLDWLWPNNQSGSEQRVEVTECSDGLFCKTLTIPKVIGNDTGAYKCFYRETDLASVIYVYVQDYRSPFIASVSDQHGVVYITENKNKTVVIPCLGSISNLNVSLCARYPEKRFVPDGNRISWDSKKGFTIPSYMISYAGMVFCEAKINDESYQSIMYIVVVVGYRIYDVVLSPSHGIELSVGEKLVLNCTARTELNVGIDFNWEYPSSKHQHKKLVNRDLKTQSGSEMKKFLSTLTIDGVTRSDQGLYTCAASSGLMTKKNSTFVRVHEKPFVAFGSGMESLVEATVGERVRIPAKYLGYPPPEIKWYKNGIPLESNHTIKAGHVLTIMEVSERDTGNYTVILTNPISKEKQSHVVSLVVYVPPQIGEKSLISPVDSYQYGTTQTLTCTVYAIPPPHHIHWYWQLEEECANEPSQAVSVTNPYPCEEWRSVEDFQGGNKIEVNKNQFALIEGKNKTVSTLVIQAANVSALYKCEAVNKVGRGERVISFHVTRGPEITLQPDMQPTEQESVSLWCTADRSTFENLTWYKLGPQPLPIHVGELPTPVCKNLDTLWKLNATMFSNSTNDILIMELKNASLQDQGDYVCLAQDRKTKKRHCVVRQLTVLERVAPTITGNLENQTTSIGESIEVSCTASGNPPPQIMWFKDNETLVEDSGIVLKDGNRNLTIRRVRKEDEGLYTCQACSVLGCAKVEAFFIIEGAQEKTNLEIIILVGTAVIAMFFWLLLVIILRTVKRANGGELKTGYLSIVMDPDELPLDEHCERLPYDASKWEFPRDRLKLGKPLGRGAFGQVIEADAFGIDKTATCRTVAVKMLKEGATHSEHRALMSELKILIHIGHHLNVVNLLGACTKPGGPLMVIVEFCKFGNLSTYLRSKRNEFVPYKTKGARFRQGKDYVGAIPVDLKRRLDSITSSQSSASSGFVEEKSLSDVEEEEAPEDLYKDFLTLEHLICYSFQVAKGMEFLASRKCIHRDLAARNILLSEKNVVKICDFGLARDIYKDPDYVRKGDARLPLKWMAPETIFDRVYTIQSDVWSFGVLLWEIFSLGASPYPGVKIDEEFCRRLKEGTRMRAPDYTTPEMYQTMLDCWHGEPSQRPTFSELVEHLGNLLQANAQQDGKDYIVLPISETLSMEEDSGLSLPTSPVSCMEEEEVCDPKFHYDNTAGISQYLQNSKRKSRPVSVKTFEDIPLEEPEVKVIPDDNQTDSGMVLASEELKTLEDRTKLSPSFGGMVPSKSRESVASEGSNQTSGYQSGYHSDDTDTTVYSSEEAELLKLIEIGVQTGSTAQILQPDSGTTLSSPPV

Row | Compound | IC50 ([1]; ATP depletion assay) [nM] | IC50 [2] [nM] | IC50 ([3]; TR-FRET assay) [nM] | EC50 [4, 5] [nM] | IC50 [1] [nM] | EC50 ([4]; KMS11-Luc cells) [nM] | IC50 [3] [nM]
1 | C[C@]1(O)[C@@H](N)C[C@H](c2ccncc2NC(=O)c2nc(-c3ccccc3)cnc2N)OC12CC2 [Example 351, 3-amino-N-(4-((5R,7S,8S)-7-amino-8-hydroxy-8-methyl-4-oxaspiro[2.5]octan-5-yl)pyridin-3-yl)-6-phenylpyrazine-2-carboxamide] | 0.4 | 538 | 7 | – | – | – | –
2 | Nc1ncc(-c2ccccc2)nc1C(=O)Nc1cnccc1[C@H]1C[C@@H](N)[C@@]2(O)CCCC[C@H]2O1 [Example 197, 3-amino-N-(4-((2R,4R,4aS,8aR)-4-amino-4a-hydroxyoctahydro-2H-chromen-2-yl)pyridin-3-yl)-6-phenylpyrazine-2-carboxamide] | 8 | 89.2 | 40 | 70 | – | – | –
3 | Nc1ncc(-c2ccccc2)nc1C(=O)Nc1cnccc1[C@H]1C[C@@H](O)[C@H](O)[C@@H](CO)O1 [Example 341, 3-amino-N-(4-((2R,4R,5S,6R)-4,5-dihydroxy-6-(hydroxymethyl)tetrahydro-2H-pyran-2-yl)pyridin-3-yl)-6-phenylpyrazine-2-carboxamide] | 3 | > 25000 | 60 | 10000 | – | – | –
4 | C[C@@]1(O)[C@H](N)C[C@@H](c2ccncc2NC(=O)c2nc(-c3ccccc3)cnc2N)OC12CC2 [Example 352, 3-amino-N-(4-((5S,7R,8R)-7-amino-8-hydroxy-8-methyl-4-oxaspiro[2.5]octan-5-yl)pyridin-3-yl)-6-phenylpyrazine-2-carboxamide] | 5.3 | 1980 | 28 | – | – | – | –
5 | C[C@@]1(O)[C@@H](N)C[C@@H](c2ccncc2NC(=O)c2nc(-c3ccccc3)cnc2N)OC12CC2 [Example 350, 3-amino-N-(4-((5S,7S,8R)-7-amino-8-hydroxy-8-methyl-4-oxaspiro[2.5]octan-5-yl)pyridin-3-yl)-6-phenylpyrazine-2-carboxamide] | 7.8 | 786 | 220 | – | – | – | –
6 | C[C@]1(O)[C@H](N)C[C@H](c2ccncc2NC(=O)c2nc(-c3ccccc3)cnc2N)OC12CC2 [Example 353, 3-amino-N-(4-((5R,7R,8S)-7-amino-8-hydroxy-8-methyl-4-oxaspiro[2.5]octan-5-yl)pyridin-3-yl)-6-phenylpyrazine-2-carboxamide] | 25 | 2430 | 250 | – | – | – | –
7 | C[C@H]1O[C@@H](c2ccncc2NC(=O)c2nc(-c3ccccc3)cnc2N)C[C@@H](O)[C@]1(C)O [Example 84, 3-amino-N-(4-((2R,4R,5S,6R)-4,5-dihydroxy-5,6-dimethyltetrahydro-2H-pyran-2-yl)pyridin-3-yl)-6-phenylpyrazine-2-carboxamide] | – | – | – | – | 1 | 900 | 16
8 | C[C@H]1O[C@@H](c2ccncc2NC(=O)c2nc(-c3ccccc3)cnc2N)[C@H](F)[C@@H](O)[C@]1(C)O [Example 58, 3-amino-N-(4-((2S,3R,4S,5S,6R)-3-fluoro-4,5-dihydroxy-5,6-dimethyltetrahydro-2H-pyran-2-yl)pyridin-3-yl)-6-phenylpyrazine-2-carboxamide] | – | – | – | – | 1 | 1000 | 280
9 | C[C@H]1O[C@@H](c2ccncc2NC(=O)c2nc(-c3ccccc3)ncc2N)C[C@@H](O)[C@]1(C)O [Example 32, 5-amino-N-(4-((2R,4R,5S,6R)-4,5-dihydroxy-5,6-dimethyltetrahydro-2H-pyran-2-yl)pyridin-3-yl)-2-phenylpyrimidine-4-carboxamide] | – | – | – | – | 454 | 1120 | > 10000
10 | C[C@@H]1O[C@H](c2ccncc2NC(=O)c2nc(-c3ccccc3)cnc2N)C[C@H](O)[C@@]1(C)O [Example 86, 3-amino-N-(4-((2S,4S,5R,6S)-4,5-dihydroxy-5,6-dimethyltetrahydro-2H-pyran-2-yl)pyridin-3-yl)-6-phenylpyrazine-2-carboxamide] | – | – | – | – | 3 | 2800 | 300
